Source: patent publication US5459143A, “N,N-disubstituted piperazines” (Bayer Aktiengesellschaft, priority 1993, dated 1995)
pIC50: −log10 of the molar value.

Columns and labels:
[1] = tested on: monocyte-free human T cells; experiment: Inhibition of 5-HT-dependent T cell proliferation; type: cell-based; details: PWM (1:200) and 5-HT (100 μM) stimulated T cells, 3H-thymidine incorporation on day 7, tested at 33 μM-0.1 μM
From the text: The in vitro activity of the compounds according to the invention results from their capability to inhibit T cell proliferation, which is previously stimulated by serotonin.
Inhibition of 5-HT-dependent T cell proliferation
Peripheral mononuclear blood cells (PBMC) are obtained from the buffy coat of the blood of healthy subjects. After isolation by means of isolymph gradients (Pharmacia), the PBMC are washed twice and used directly. Purified T cells are obtained by E rosette formation with sheep erythrocytes [cf. Blue, M. -L., J. F. Daley, H. Levine, K. A. Craig and S. F. Schlossmann, 1986, Biosynthesis and surface expression of T8 by peripheral blood T4+ cells in vitro, J. Immunol. 137, 1202]. Monocytes are partially removed by adhesion to tissue culture plates or flasks. PBMC, T cells or purified T cells (depleted in monocytes) at 5×10^5 /ml, 100 μl/well are cultured in RPMI 1640 medium with 10% fetal calf serum (GIBCO) and L-glutamine in 96-well microculture plates (Becton-Dickinson) under a 5% CO2 atmosphere at 37° C. for 7 days. The cultures are treated with 1 μCi of ^3 H-thymidine for 6 h on the 7th day and collected on filter paper, and the incorporated radioactivity is determined by means of liquid scintillation counting.
The test substances are dissolved in 10 mM HCl in order to achieve a final concentration of 1 mM in each case. The compounds are diluted serially 3× with medium in order to obtain a final concentration between 33 μM-0.1 μM. PWM (1:200, pokeweed mitogen) and 5-HT (100 μM, serotonin), which contain the test substances, are added to monocyte-free human T cells. The positive control (maximum proliferation) is obtained from cultures containing T cells, PWM and 5-HT. The negative control (minimal proliferation) is obtained from cultures containing T cells and PWM without 5-HT. The inhibitory activity of the test substances is expressed as the IC50 in μM.

[2] = tested on: Lewis rats; experiment: Adjuvant arthritis model in the rat; type: in vivo; details: Freund's adjuvant arthritis, malleolus diameter day 16 vs day 0, dosing on days 0, 1, 2, 5, 7, 9, 12 and 14
Description: Adjuvant arthritis model in the rat
Freund's adjuvant (FA) is prepared by addition of 10 mg/ml of heat-killed Mycobacterium butyricum to extra-heavy mineral oil. Lewis rats receive a 0.1 ml injection of FA (1 mg/animal) subcutaneously in the right hind paw. An acute inflammation takes place there, which is characterized by reddening, edema and a predominant neutrophilic cell infiltration (primary reaction). Tumescent areas in the treated paw on day 5 are followed between day 10-12 by an increase in the swelling (chronic inflammatory reaction) and the occurrence of a swelling in the opposite untreated paw (secondary immune response).
The cell infiltration of the chronic inflammation and the second immune response are mainly mononuclear, which indicates the presence of T-cell mediated immunity. The animals are observed daily, and the swelling is measured in millimeters on days 12 and 16 using a hand-adjustable micrometer. The swelling reaches its peak on the 16th day, on which the animals are sacrificed and tissue samples are taken for histological evaluation.
The extent of the swelling is determined by calculation of the greatest difference in the malleolus diameter between the 16th and the 0th day.
The animals receive the compounds according to the invention in a suspension of 5% polyethylene glycol and 0.5% Tween 80 in phosphate buffer solution p.o. or i.p. on days 0, 1, 2, 5, 7, 9, 12 and 14 [cf. for this purpose L. Sokoloff, 1984, Int. Rev. Exp. Pathol. 26, 107; M. E. J. Bittingham et al., 1989, J. Exp. Med. 171, 339; K. M. Connolly et al., 1989, Agents and Actions 27, 328].

Molecule Clc1ccc(C(c2ccccc2)N2CCN(CCCN3CC4C5c6ccccc6C(c6ccccc65)C4C3)CC2)cc1 (centres unmarked) [Example 26] has a pIC50 [1] of 6.00.
O=C1C2C3c4ccccc4C(c4ccccc43)C2C(=O)N1CCCN1CCN(C(c2ccccc2)c2ccccc2)CC1 (centres unmarked) [Example 4] gave a pIC50 [1] of less than 5.00.
In the case of Fc1ccc(C(CCCN2CCN(CCCN3CC4C5c6ccccc6C(c6ccccc65)C4C3)CC2)c2ccc(F)cc2)cc1 (centres unmarked) [Example 23], the pIC50 [1] was 7.00.
For O=C1C2C3c4ccccc4C(c4ccccc43)C2C(=O)N1CCCN1CCN(C(c2ccccc2)c2ccc(Cl)cc2)CC1 (centres unmarked) [Example 8], the pIC50 [1] was 4.30.
In the case of c1ccc(C(c2ccccc2)N2CCN(CCCN3CC4C5c6ccccc6C(c6ccccc65)C4C3)CC2)cc1 (centres unmarked) [Example 21], the “Inhibition of the swelling in % after administration of 10 mg/kg i.p.” value [2] was 0.5% and the pIC50 [1] was 6.30.
Molecule O=C1C2C3c4ccccc4C(c4ccccc43)C2C(=O)N1CCCN1CCN(C2CCCC2)CC1 (centres unmarked) [Example 10] has a pIC50 [1] of 4.52.
In the case of CC(C)(C)c1ccc(CN2CCN(CCCN3C(=O)C4C5c6ccccc6C(c6ccccc65)C4C3=O)CC2)cc1 (centres unmarked) [Example 6], the “Inhibition of the swelling in % after administration of 10 mg/kg i.p.” value [2] was 24% and the pIC50 [1] was 5.52.
O=C1C2C3c4ccccc4C(c4ccccc43)C2C(=O)N1CCCN1CCN(c2ncccn2)CC1 (centres unmarked) [Example 3] showed a pIC50 [1] of less than 5.00.
For O=C1C2C3c4ccccc4C(c4ccccc43)C2C(=O)N1CCCN1CCN(CCc2ccccc2C(F)(F)F)CC1 (centres unmarked) [Example 5], the “Inhibition of the swelling in % after administration of 10 mg/kg i.p.” value [2] was 24% and the pIC50 [1] was 5.70.
In the case of FC(F)(F)c1ccccc1CCN1CCN(CCCN2CC3C4c5ccccc5C(c5ccccc54)C3C2)CC1 (centres unmarked) [Example 16], the “Inhibition of the swelling in % after administration of 10 mg/kg i.p.” value [2] was 13% and the pIC50 [1] was 5.30.
c1ccc2c(c1)C1c3ccccc3C2C2CN(CCCN3CCN(C4CCCC4)CC3)CC12 (centres unmarked) [Example 24] was tested, and the pIC50 [1] was 5.22.
CC(C)(C)c1ccc(CN2CCN(CCCN3CC4C5c6ccccc6C(c6ccccc65)C4C3)CC2)cc1 (centres unmarked) [Example 18] showed a pIC50 [1] of 5.70.
With c1cnc(N2CCN(CCCCN3CC4C5c6ccccc6C(c6ccccc65)C4C3)CC2)nc1 (centres unmarked) [Example 17] the pIC50 [1] was less than 5.00.
In the case of c1cnc(N2CCN(CCCN3CC4C5c6ccccc6C(c6ccccc65)C4C3)CC2)nc1 (centres unmarked) [Example 15], the pIC50 [1] was 5.70.
In the case of CC12c3ccccc3C(c3ccccc31)C1CN(CCCN3CCN(C(c4ccccc4)c4ccccc4)CC3)CC12 (centres unmarked) [Example 20], the “Inhibition of the swelling in % after administration of 10 mg/kg i.p.” value [2] was 79% and the pIC50 [1] was 6.30.
c1ccc2c(c1)C1c3ccccc3C2C2CN(CCCN3CCN(C4CCCCCC4)CC3)CC12 (centres unmarked) [Example 19] was tested, and the pIC50 [1] was 5.30.
In the case of O=C1C2C3c4ccccc4C(c4ccccc43)C2C(=O)N1CCCN1CCN(C(c2ccc(F)cc2)c2ccc(F)cc2)CC1 (centres unmarked) [Example 1], the pIC50 [1] was less than 5.00.
With Fc1ccc(C(c2ccc(F)cc2)N2CCN(CCCN3CC4C5c6ccccc6C(c6ccccc65)C4C3)CC2)cc1 (centres unmarked) [Example 13] the “Inhibition of the swelling in % after administration of 10 mg/kg i.p.” value [2] was 2%.
